pIC50: −log10 of the molar value. Read-outs that look alike come from different tables or passages of the source.
What was measured:
ALCAT1 [1] = molecular target: T1, ALCAT1 (Homo sapiens (Human), UniProt Q6UWP7); experiment: In vitro acyltransferase assay for ALCAT1 inhibitors; assay type: biochemical; details: for inhibition at 1 µM / % inh @ 1 μM: 1 μM compound; for pIC50: ALCAT1 enzyme activity
How it was run: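 Membrane fractions from Sf9 cells expressing human ALCAT1 incubated 30 min at room temperature with 100 µM MLCL or LPG and 25 µM [14C]acyl-CoA (or 100 µM NBD-CoA) in 50 mM Tris/HCl pH 7.0.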
Target sequence in this assay (Q6UWP7 whole entry): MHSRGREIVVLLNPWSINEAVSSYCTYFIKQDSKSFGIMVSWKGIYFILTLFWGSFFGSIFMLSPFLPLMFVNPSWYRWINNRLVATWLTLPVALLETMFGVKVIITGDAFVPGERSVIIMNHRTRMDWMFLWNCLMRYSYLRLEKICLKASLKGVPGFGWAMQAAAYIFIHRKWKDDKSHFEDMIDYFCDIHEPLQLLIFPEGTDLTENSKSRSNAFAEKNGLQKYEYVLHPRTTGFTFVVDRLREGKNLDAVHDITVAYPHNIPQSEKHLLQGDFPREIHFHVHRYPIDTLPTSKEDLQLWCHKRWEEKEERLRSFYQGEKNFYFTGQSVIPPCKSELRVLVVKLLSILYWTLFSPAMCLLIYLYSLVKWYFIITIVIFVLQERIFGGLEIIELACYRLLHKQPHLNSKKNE

ALCAT1 [2] = molecular target: T1, ALCAT1; experiment: Cell-based assay for ALCAT inhibitor compounds (H9C2 cells); details: H9c2, 3 μM compound; H9C2 vector cell line and H9C2 with stable overexpression of ALCAT1
Protocol: The assay was performed on the H9C2 vector cell line and H9C2 with stable overexpression of ALCAT1. Materials used in the protocol were CoA, LPG, compounds, chloroform, methanol, 0.9% KCl, 6-well-plates, 1.5 mL tubes, DMEM, FBS, P/S and PBS.
Cells were seeded in 6-well-plates, 8×10^5 cells/well, and cultured at 37° C. in 5% CO2 overnight.
Cells were washed once with ice-cold PBS, collected in ice-cold PBS and centrifuged at 5000 rpm for 5 min at 4° C. 200 μL of chloroform: methanol (2:1) was added to the cell pellet, which was vortexed to suspend the cells and incubated at RT for 1 hr.
40 μL of 0.9% KCl was added and the sample was vortexed before centrifugation at 10000 rpm for 5 min at RT. The aqueous phase (upper layer) was discarded and the organic phase (lower layer) was loaded to a TLC plate (10 cm×20 cm), 40 μL/sample.
The plates were developed in chloroform: methanol: water (65:25:4) for about 30 min and scanned using a Typhoon Scanner. The bands intensity was analysed using ImageJ and the inhibition activity of the tested compounds was calculated.
Compound inhibitors for ALCAT1 enzyme were analyzed by an in vitro cell-based assay as detailed above.
Target sequence in this assay (Q6UWP7 whole entry, species assumed): as the sequence (Q6UWP7 whole entry) above

[3] = read-out: IC50 values (upper bounds)
[4] = triplicates, GraphPad, read-out: IC50

Row | Compound | inhibition at 1 µM (ALCAT1 [1]; in vitro enzymatic assay) [%] | pIC50 (ALCAT1 [1]; [3]) | pIC50 (ALCAT1 [1]; [4]) | inhibition at 3 µM (ALCAT1 [2]) [%] | % inh @ 1 μM (ALCAT1 [1]; in vitro enzymatic assay) | inhibition at 10 µM (ALCAT1 [1]; 10 μM compound, in vitro enzymatic assay) [%]
1 | O=C(Nc1cc(-c2nnc(-c3ccco3)o2)ccc1F)c1cc(F)ccc1OCC(F)F [Compound 320, 2-(2,2-Difluoroethoxy)-5-fluoro-N-(2-fluoro-5-(5-(furan-2-yl)-1,3,4-oxadiazol-2-yl)phenyl)benzamide] | 96 | > 7.00 | 7.47 | 17 |  | 
2 | Cc1ccc(OCC(F)(F)F)c(C(=O)Nc2cc(-c3nnc(-c4ccco4)o3)ccc2F)c1 [Compound 322, N-(2-fluoro-5-(5-(furan-2-yl)-1,3,4-oxadiazol-2-yl)phenyl)-5-methyl-2-(2,2,2-trifluoroethoxy)benzamide] | 94 |  | 7.21 | 26 |  | 
3 | COc1ccc(C(F)(F)F)cc1C(=O)Nc1cc(-c2nnc(-c3ccco3)o2)ccn1 [Compound 396, N-(4-(5-(Furan-2-yl)-1,3,4-oxadiazol-2-yl)pyridin-2-yl)-2-methoxy-5-(trifluoromethyl)benzamide] | 96 |  | 7.11 | 45 |  | 
4 | O=C(Nc1cc(-c2nnc(-c3ccco3)o2)ccc1F)c1ccccc1OC(F)F [Compound 302, 2-(Difluoromethoxy)-N-(2-fluoro-5-(5-(furan-2-yl)-1,3,4-oxadiazol-2-yl)phenyl)benzamide] | 97 |  | 7.44 | 20 |  | 
5 | CCCOc1ccc(C)cc1C(=O)Nc1cc(-c2nnc(-c3ccco3)o2)ccc1F [Compound 208, N-(2-Fluoro-5-(5-(furan-2-yl)-1,3,4-oxadiazol-2-yl)phenyl)-5-methyl-2-propoxybenzamide] | 97 |  | 7.12 | 36 | 98% | 
6 | CCOc1ccc(CC)cc1C(=O)N(c1cc(-c2nnc(-c3ccco3)o2)ccc1F)P(=O)(O)O [Compound 497, (2-ethoxy-5-ethylbenzoyl) (2-fluoro-5-(5-(furan-2-yl)-1,3,4-oxadiazol-2-yl)phenyl)phosphoramidic acid] | 90 |  | 7.14 | 75 |  | 
7 | CCCOc1ccc(F)cc1C(=O)Nc1cc(-c2nnc(-c3ccco3)o2)ccc1F [Compound 210, 5-Fluoro-N-(2-fluoro-5-(5-(furan-2-yl)-1,3,4-oxadiazol-2-yl)phenyl)-2-propoxybenzamide] | 97 |  | 7.18 | 24 |  | 97
8 | COc1ccc(OC(F)(F)F)cc1C(=O)Nc1cc(-c2nnc(-c3ccco3)o2)ccn1 [Compound 400, N-(4-(5-(Furan-2-yl)-1,3,4-oxadiazol-2-yl)pyridin-2-yl)-2-methoxy-5-(trifluoromethoxy)benzamide] | 96 |  | 7.21 | 50 |  | 
9 | CCOc1ccc(CC)cc1C(=O)Nc1cccc(-c2nnc(-c3ccco3)o2)c1 [Compound 219, 2-Ethoxy-5-ethyl-N-(3-(5-(furan-2-yl)-1,3,4-oxadiazol-2-yl)phenyl)benzamide] | 99 | > 7.00 | 7.47 | 22 | 98% | 

Stronger by pIC50 (ALCAT1 [1]; [4]), values ahead:

Row | inhibition at 1 µM (ALCAT1 [1]; in vitro enzymatic assay) [%] | pIC50 (ALCAT1 [1]; [3]) | pIC50 (ALCAT1 [1]; [4]) | inhibition at 3 µM (ALCAT1 [2]) [%] | % inh @ 1 μM (ALCAT1 [1]; in vitro enzymatic assay) | inhibition at 10 µM (ALCAT1 [1]; 10 μM compound, in vitro enzymatic assay) [%] | Compound
10 | 98 | > 7.00 | 7.62 | 36 |  |  | O=C(Nc1cc(-c2nnc(-c3ccco3)o2)ccc1F)c1cc(Cl)ccc1OCCF [Compound 318, 5-Chloro-N-(2-fluoro-5-(5-(furan-2-yl)-1,3,4-oxadiazol-2-yl)phenyl)-2-(2-fluoroethoxy)benzamide]
11 | 100 | > 7.00 | 7.51 | 38 | 100/100% |  | CCOc1ccc(C)cc1C(=O)Nc1cc(-c2nnc(-c3ccco3)o2)ccc1F [Compound 221, 2-Ethoxy-N-(2-fluoro-5-(5-(furan-2-yl)-1,3,4-oxadiazol-2-yl)phenyl)-5-methylbenzamide]
12 | 100 | > 7.00 | 7.72 | 30 |  |  | O=C(Nc1cc(-c2nnc(-c3ccco3)o2)ccc1F)c1cc(Cl)ccc1OCF [Compound 306, 5-Chloro-N-(2-fluoro-5-(5-(furan-2-yl)-1,3,4-oxadiazol-2-yl)phenyl)-2-(fluoromethoxy)benzamide]
13 | 96 | > 7.00 | 7.59 | 14 |  |  | Cc1ccc(OCC(F)F)c(C(=O)Nc2cc(-c3nnc(-c4ccco4)o3)ccc2F)c1 [Compound 323, 2-(2,2-Difluoroethoxy)-N-(2-fluoro-5-(5-(furan-2-yl)-1,3,4-oxadiazol-2-yl)phenyl)-5-methylbenzamide]
14 | 95 | > 7.00 | 7.54 | 36 |  |  | O=C(Nc1cc(-c2nnc(-c3ccco3)o2)ccc1F)c1ccccc1OCC(F)F [Compound 314, 2-(2,2-Difluoroethoxy)-N-(2-fluoro-5-(5-(furan-2-yl)-1,3,4-oxadiazol-2-yl)phenyl)benzamide]
15 | 98 | > 7.00 | 7.72 | 45 |  |  | COc1ccc(C(F)(F)F)cc1C(=O)Nc1cc(-c2nnc(-c3ccco3)o2)ccc1F [Compound 416, N-(2-Fluoro-5-(5-(furan-2-yl)-1,3,4-oxadiazol-2-yl)phenyl)-2-methoxy-5-(trifluoromethyl)benzamide]
16 | 100 | > 7.00 | 7.74 | 57 | 100/100% |  | COc1ccc(Cl)cc1C(=O)Nc1cc(-c2nnc(-c3ccco3)o2)ccc1F [Compound 184, 5-Chloro-N-(2-fluoro-5-(5-(furan-2-yl)-1,3,4-oxadiazol-2-yl)phenyl)-2-methoxybenzamide]
17 | 98 | > 7.00 | 7.48 | 4 |  |  | O=C(Nc1cc(-c2nnc(-c3ccco3)o2)ccc1F)c1cc(F)ccc1OCCF [Compound 312, 5-Fluoro-N-(2-fluoro-5-(5-(furan-2-yl)-1,3,4-oxadiazol-2-yl)phenyl)-2-(2-fluoroethoxy)benzamide]
18 | 100 | > 7.00 | 7.72 | 45 | 100/100% |  | CCOc1ccc(Cl)cc1C(=O)Nc1cc(-c2nnc(-c3ccco3)o2)ccc1F [Compound 216, 5-chloro-2-ethoxy-N-(2-fluoro-5-(5-(furan-2-yl)-1,3,4-oxadiazol-2-yl)phenyl)benzamide]
19 | 100 | > 7.00 | 7.62 | 62 | 100/100% |  | COc1ccc(Br)cc1C(=O)Nc1cc(-c2nnc(-c3ccco3)o2)ccc1F [Compound 183, 5-Bromo-N-(2-fluoro-5-(5-(furan-2-yl)-1,3,4-oxadiazol-2-yl)phenyl)-2-methoxybenzamide]
20 | 98 | > 7.00 | 7.72 | 52 |  |  | COc1ccc(OC(F)(F)F)cc1C(=O)Nc1cc(-c2nnc(-c3ccco3)o2)ccc1F [Compound 405, N-(2-Fluoro-5-(5-(furan-2-yl)-1,3,4-oxadiazol-2-yl)phenyl)-2-methoxy-5-(trifluoromethoxy)benzamide]

Source: US11208404B2 (PERENNA PHARMACEUTICALS, INC., priority 2017, dated 2021)
